Like-named read-outs stand apart in the source and are kept apart here.
Key:
MAO-B [1] = biological target: T1, MAO-B (Homo sapiens, UniProt P27338); details: previous studies of the authors; read-out: IC50 against MAO-B; cited from earlier work
T1 sequence (P27338 1-520): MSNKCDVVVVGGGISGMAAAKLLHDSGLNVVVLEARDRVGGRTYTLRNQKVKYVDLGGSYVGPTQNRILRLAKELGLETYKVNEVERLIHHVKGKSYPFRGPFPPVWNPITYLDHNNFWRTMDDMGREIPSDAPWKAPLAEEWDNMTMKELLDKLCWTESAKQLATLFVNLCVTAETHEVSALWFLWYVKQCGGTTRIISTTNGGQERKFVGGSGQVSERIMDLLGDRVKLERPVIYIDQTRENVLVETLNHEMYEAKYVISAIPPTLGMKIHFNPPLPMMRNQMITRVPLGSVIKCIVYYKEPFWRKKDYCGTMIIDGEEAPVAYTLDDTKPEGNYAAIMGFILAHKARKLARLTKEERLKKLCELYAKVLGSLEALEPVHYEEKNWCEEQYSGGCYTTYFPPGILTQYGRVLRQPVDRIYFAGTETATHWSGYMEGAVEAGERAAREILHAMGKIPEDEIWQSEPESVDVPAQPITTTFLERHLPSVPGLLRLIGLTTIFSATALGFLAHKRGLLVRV

MAO-A = biological target: T2, MAO-A (Homo sapiens, UniProt P21397); assay: biochemical; details: mean ± S.E.M. from three experiments
T2 sequence (P21397 1-527): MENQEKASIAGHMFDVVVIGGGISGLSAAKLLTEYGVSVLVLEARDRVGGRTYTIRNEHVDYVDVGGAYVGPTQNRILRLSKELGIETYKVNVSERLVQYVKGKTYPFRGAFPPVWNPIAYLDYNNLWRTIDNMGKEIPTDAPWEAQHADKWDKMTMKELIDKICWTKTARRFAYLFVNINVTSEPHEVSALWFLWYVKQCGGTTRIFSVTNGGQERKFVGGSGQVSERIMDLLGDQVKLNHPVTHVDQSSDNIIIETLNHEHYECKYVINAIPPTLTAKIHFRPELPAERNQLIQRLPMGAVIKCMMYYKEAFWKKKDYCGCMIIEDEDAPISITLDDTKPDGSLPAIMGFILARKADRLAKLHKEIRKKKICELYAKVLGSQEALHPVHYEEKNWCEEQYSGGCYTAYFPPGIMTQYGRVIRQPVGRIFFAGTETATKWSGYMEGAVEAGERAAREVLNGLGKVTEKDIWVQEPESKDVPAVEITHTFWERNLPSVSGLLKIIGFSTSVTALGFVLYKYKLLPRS

MAO-B [2] = biological target: T1, MAO-B; assay: biochemical
[3] = tested on: LPS-induced NO production in RAW264.7 cells; assay: Anti-inflammatory assay: inhibition of LPS-induced NO production; format: cell-based
[4] = tested on: acetylcholinesterase (AChE); details: 50 μM
Procedure: (§1) S-Acetylthiocholine iodide, S-butyrylthiocholineiodide, 5,5′-dithio-bis-(2-nitrobenzoic) acid (DTNB, Ellman’s reagent), acetylcholinesterase and butyrylcholinesterase derived from human erythrocytes were purchased from Sigma Chemical (St. Louis, MO, USA). The compounds were dissolved in DMSO. The reaction mixture (totally 200 μL) containing phosphate buffer (pH 8.0), test compound (50 μM), and acetyl cholinesterase (0.02 U/mL) or butyrylcholinesterase (0.016 U/mL), was incubated for 20 min (37 °C). […] All of the reactions were performed in triplicate. The percentage inhibition was calculated as follows: % inhibition = (E − S)/E × 100 (E is the activity of the enzyme without test compound, and S is the activity of the enzyme with test compound).

[5] = tested on: T3, butyrylcholinesterase (BuChE); assay: Butyrylcholinesterase inhibitory activity (Ellman's method); format: biochemical, human; details: 50 μM
T3 construct: acetylcholinesterase and butyrylcholinesterase derived from human erythrocytes; purchased Sigma Chemical (St. Louis, MO, USA); host or cells: human erythrocytes (so in the source)
Procedure: as §1

α-glucosidase = assay: α-Glucosidase inhibition assay (4-NPGP); format: biochemical
Procedure: An enzyme inhibitor screening model was chosen using 4-nitro-phenol-α-D-glucopyranoside (4-NPGP) and slightly modified. Briefly, the test compound (50 μM), α-glucosidase solution (0.025 U/mL), phosphate buffer (pH 6.9), and (4-NPGP) (1 μM) were incubated in 96-well plates at 37 °C for 50 min. […] Quercetin was selected as the positive control. All of the reactions were repeated three times.

[6] = tested on: Salmonella enterica (ATCC14028); assay: Antimicrobial assay (broth dilution and Oxford cup method); format: cell-based, Salmonella enterica subsp. enterica; details: 100 μM
Description: (§2) The broth dilution method and Oxford cup method were used to detect antimicrobial activity against reference strains, including Salmonella enterica subsp. enterica (ATCC14028), Staphylococcus aureus subsp. aureus (ATCC29213), Escherichia coli (ATCC25922), Pseudomonas aeruginosa (ATCC27853), and Candida albicans (ATCC10231). Ceftazidime and penicillin G sodium and amphotericin B served as an antibacterial and antifungal positive control, respectively.

[7] = tested on: Staphylococcus aureus (ATCC29213); assay: as above; format: cell-based, Staphylococcus aureus subsp. aureus; details: 100 μM
Description: as §2

[8] = tested on: Candida albicans (ATCC10231); assay: as above; format: cell-based; details: 100 μM
Description: as §2

[9] = tested on: Escherichia coli (ATCC25922); assay: as above; format: cell-based; details: 100 μM
Description: as §2

[10] = tested on: Pseudomonas aeruginosa (ATCC27853); assay: as above; format: cell-based; details: 100 μM
Description: as §2

SMILES: COc1c(OC/C=C(\C)C[C@@H]2C=C(CCC(N)=O)C(=O)O2)ccc2ccc(=O)oc12 [anisucoumaramide]
- IC50 (MAO-B [1]): 143.7 ± 0.9 nM

SMILES: C=C(C)[C@H](O)[C@@H](OCC)c1c(OC)ccc(/C=C/C(=O)O[C@H](Cc2c(OC)ccc3ccc(=O)oc23)C(C)(C)O)c1O [Compound 1, (E)-(R)-3-hydroxy-1-(7-methoxy-2-oxo-2H-chromen-8-yl)-3-methylbutan-2-yl·3-(3-((1S, 2S)-1-ethoxy-2-hydroxy-3-methylbut-3-en-1-yl)-2-hydroxy-4-methoxyphenyl)acrylate]
- IC50 (MAO-A): 26300 ± 1030 nM
- SI: MAO-B selectivity index = IC50 (MAO-A)/IC50 (MAO-B) (MAO-B [2]): 172
- IC50 (MAO-B [2]; mean ± S.E.M. from three experiments): 153 ± 1.58 nM
- inhibition against LPS-induced NO production [3]: 34.59%
- AChE inhibitory activity [4]: did not show any inhibitory activity
- BuChE inhibitory activity [5]: did not show any inhibitory activity
- α-glucosidase percentage of inhibition (α-glucosidase; 50 μM): less than 50%
- inhibitory effect against Salmonella enterica (ATCC14028) [6]: did not lead to a significant inhibitory effect
- inhibitory effect against Staphylococcus aureus (ATCC29213) [7]: did not lead to a significant inhibitory effect
- inhibitory effect against Candida albicans (ATCC10231) [8]: did not lead to a significant inhibitory effect
- inhibitory effect against Escherichia coli (ATCC25922) [9]: did not lead to a significant inhibitory effect
- inhibitory effect against Pseudomonas aeruginosa (ATCC27853) [10]: did not lead to a significant inhibitory effect

SMILES: [H]/N=C(/NC)NCCC[C@H](N)C(=O)O [L-NMMA, NG-monomethyl-L-arginine, reference compound]
- inhibition against LPS-induced NO production [3]: 56.13%

SMILES: O=c1c(O)c(-c2ccc(O)c(O)c2)oc2cc(O)cc(O)c12 [quercetin, reference compound]
- α-glucosidase inhibition (positive control) (α-glucosidase; concentration not given): 53.17%

From paper PMC9370560, “5-Demethoxy-10′-ethoxyexotimarin F, a New Coumarin with MAO-B Inhibitory Potential from Murraya exotica L” (Molecules, 2022)
